Consider 56 compounds from patent US20240425496A1, “AZETIDINYL PYRIMIDINES AND USES THEREOF” (Aerie Pharmaceuticals, Inc., priority 2021, published 2024).

The target of one test is TYK2 (Homo sapiens (Human), UniProt P29597). The test is described as follows: JAK kinase assay (KINASE-GLO luminescent), TYK2 enzyme. The test is classed as biochemical. Particulars: TYK2 enzyme 10 nM, Abl peptide substrate. As for the experimental part:
(§1) All compounds were initially prepared as 10 mM stocks in anhydrous dimethylsulfoxide (DMSO). […] Test compounds were then serially diluted 1:5 in DMSO for an 11-point concentration response and further diluted in the assay buffer bringing all compound concentrations to a final range of 100 μM to 10 μM in 2.5% DMSO. […] The reaction was initiated by the addition of 10 μL of 4× stock solution ATP (2 μM). Reactions were thoroughly mixed manually, covered, and allowed to incubate at room temperature for 75 min. Protein kinase activity was quantitated using Promega's KINASE-GLO™ luminescent Kinase Assay Kit according to the manufacturer's directions. ATP concentrations remaining in Test wells following the termination of the enzymatic reaction were compared against control wells containing equivalent amounts of DMSO containing no inhibitor (CTRL). […] Percent of Control (POC) values were determined for each concentration of compound tested according to the equation: […]
(§2) IC50 values were calculated using the following 4-parameter logistic curve-fitting algorithm:
(§3) Compounds were prepared in the exact same manner as described in the ROCK Kinase Assay with the exception to the substrate and enzyme. […] All other steps and solutions remain identical to the ROCK Kinase Assay above.
In general terms: Kinase-Glo measures the ATP left after a reaction by luminescence.

Another test deals with JAK1 (Homo sapiens (Human), UniProt P23458). The test is described as follows: JAK kinase assay (KINASE-GLO luminescent), JAK1 enzyme. The format is biochemical. Particulars: JAK1 enzyme 10 nM, Abl peptide substrate. Here is the method:
as §1, §2, §3

Chain of TYK2 (P29597 whole entry, species assumed): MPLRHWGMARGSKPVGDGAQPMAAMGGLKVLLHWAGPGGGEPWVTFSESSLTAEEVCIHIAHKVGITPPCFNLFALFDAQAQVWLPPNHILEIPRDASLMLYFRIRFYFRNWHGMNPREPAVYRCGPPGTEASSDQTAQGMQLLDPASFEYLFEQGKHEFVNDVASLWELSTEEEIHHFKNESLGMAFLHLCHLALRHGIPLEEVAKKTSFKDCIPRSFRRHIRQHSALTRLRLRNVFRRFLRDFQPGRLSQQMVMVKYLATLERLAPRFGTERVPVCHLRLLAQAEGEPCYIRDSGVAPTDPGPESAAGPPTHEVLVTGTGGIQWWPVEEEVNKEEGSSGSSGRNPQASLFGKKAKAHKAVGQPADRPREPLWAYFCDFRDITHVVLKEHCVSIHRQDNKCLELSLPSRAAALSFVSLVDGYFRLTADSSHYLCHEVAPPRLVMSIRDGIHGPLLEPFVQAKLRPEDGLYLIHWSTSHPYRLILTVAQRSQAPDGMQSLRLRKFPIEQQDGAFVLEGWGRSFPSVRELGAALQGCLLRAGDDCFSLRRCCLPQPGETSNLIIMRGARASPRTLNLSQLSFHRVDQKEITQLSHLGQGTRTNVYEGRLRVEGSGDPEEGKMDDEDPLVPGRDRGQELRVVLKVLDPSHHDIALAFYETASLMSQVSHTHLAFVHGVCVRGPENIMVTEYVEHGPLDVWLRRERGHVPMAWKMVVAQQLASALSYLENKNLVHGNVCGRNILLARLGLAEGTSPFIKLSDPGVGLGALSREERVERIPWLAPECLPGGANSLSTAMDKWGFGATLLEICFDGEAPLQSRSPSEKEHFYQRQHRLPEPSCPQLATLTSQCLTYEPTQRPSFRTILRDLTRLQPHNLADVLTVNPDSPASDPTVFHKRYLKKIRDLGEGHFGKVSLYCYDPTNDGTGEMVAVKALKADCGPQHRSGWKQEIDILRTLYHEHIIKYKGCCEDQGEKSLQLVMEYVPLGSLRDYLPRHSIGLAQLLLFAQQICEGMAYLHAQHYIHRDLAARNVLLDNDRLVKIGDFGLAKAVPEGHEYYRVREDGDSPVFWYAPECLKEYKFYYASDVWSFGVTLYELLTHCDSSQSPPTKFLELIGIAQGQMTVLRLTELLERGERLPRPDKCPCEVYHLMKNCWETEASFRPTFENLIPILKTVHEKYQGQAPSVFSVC
Chain of JAK1 (P23458 whole entry, species assumed): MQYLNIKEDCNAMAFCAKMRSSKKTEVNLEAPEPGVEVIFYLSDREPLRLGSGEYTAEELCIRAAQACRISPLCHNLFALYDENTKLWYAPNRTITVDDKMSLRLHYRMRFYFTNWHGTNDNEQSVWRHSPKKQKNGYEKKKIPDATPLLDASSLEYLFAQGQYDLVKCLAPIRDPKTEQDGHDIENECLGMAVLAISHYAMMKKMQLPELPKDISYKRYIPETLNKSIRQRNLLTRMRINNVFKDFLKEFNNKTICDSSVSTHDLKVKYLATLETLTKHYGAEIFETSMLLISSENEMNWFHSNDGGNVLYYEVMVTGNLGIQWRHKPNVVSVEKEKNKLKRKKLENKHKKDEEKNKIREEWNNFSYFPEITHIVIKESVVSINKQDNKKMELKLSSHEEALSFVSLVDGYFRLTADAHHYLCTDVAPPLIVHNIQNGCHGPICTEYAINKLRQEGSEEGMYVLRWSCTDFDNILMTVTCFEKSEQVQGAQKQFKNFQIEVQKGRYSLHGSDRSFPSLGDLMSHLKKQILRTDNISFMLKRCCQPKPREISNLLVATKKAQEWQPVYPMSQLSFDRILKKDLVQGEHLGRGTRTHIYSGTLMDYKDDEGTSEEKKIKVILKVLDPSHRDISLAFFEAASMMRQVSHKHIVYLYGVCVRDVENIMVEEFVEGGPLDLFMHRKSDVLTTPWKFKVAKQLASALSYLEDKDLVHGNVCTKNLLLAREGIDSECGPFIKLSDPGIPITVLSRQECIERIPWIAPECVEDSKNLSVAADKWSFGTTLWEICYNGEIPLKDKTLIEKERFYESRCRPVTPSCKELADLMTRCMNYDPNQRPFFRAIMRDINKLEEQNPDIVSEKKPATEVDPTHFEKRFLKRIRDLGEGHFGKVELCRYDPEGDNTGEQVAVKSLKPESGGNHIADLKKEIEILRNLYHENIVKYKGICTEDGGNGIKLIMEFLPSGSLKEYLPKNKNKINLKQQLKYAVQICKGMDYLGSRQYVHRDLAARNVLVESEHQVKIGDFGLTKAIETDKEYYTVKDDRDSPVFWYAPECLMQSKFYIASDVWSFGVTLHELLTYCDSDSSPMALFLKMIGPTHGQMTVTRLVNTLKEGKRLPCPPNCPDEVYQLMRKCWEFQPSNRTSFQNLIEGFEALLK

Consider `Cc1cc(Nc2ncc(C)c(N3CC(CC#N)(N4CCN(C)CC4)C3)n2)sn1` [E5, 2-(1-(5-methyl-2-((3-methylisothiazol-5-yl)amino)pyrimidin-4-yl)-3-(4-methyl-piperazin-1-yl)azetidin-3-yl)acetonitrile], for which the concentration for half-maximal inhibition (IC50) (in general, the midpoint of a concentration-inhibition curve) at TYK2 was less than 10 nM. Consider `Cc1cc(Nc2ncc(C)c(N3CC(CC#N)C3)n2)sn1` [E6], for which the concentration for half-maximal inhibition (IC50) on TYK2 is less than 10 nM.

As to `Cc1cc(Nc2ncc(C)c(N3CC(CC#N)(N4CCOCC4)C3)n2)sn1` [E9], the IC50 at TYK2 and on JAK1 was less than 10 nM each time. `Cc1cc(Nc2ncc(C)c(N3CC(CC#N)(N4CCCCC4)C3)n2)sn1` [E10] came in with an IC50 against JAK1 of less than 10 nM.

Take `Cc1cc(Nc2ncc(C)c(N3CC(CC#N)(N4CC(C5CC5)C4)C3)n2)sn1` [E11]: the 50% inhibitory concentration (IC50) at TYK2 and at JAK1 was less than 10 nM each time.

In the case of `Cc1cc(Nc2ncc(C)c(N3CC(CC#N)(N4CCC4)C3)n2)sn1` [E12], the IC50 against TYK2 and against JAK1 was less than 10 nM each time. Consider `Cc1cc(Nc2ncc(C)c(N3CC(CC#N)(N(C)C4CC4)C3)n2)sn1` [E13], for which the IC50 on TYK2 and against JAK1 was less than 10 nM in each case. Turning to `Cc1cc(Nc2ncc(C)c(N3CC(CC#N)(N4CCC(CCF)CC4)C3)n2)sn1` [E14], the IC50 against TYK2 and at JAK1 was less than 10 nM in each case.

Turning to `Cc1cc(Nc2ncc(C)c(N3CC(CC#N)(N4CCCC(C)C4)C3)n2)sn1` (stereo not shown) [E15], the IC50 against TYK2 and at JAK1 was less than 10 nM in each case. For `Cc1cc(Nc2ncc(C)c(N3CC(CC#N)(N4CC(C)CC(C)C4)C3)n2)sn1` (stereo not shown) [E16], the IC50 against TYK2 and on JAK1 was less than 5 nM each time.

On to `Cc1cc(Nc2ncc(C)c(N3CC(CC#N)(N4CCC(F)CC4)C3)n2)sn1` [E17], for which the half-inhibitory concentration (IC50) against TYK2 and on JAK1 was less than 10 nM in each case. Take `Cc1cnc(Nc2cc(C3CC3)ns2)nc1N1CC(CC#N)(N2CCN(C)CC2)C1` [E18]: the half-maximal inhibitory concentration (IC50) against TYK2 and on JAK1 was less than 5 nM in each case.

In the case of `Cc1cc(Nc2ncc(C)c(N3CC(CC#N)(N4CC5CC(C5)C4)C3)n2)sn1` [E19], the IC50 against TYK2 and at JAK1 was less than 10 nM throughout. For `Cc1cc(Nc2ncc(C)c(N3CC(CC#N)(N4CCC(CC(F)F)CC4)C3)n2)sn1` [E20], the IC50 at TYK2 and against JAK1 was less than 10 nM throughout. As to `Cc1cc(Nc2ncc(C)c(N3CC(CC#N)(N4CCCC5(CC5)C4)C3)n2)sn1` [E21], the IC50 against TYK2 and against JAK1 was less than 10 nM each time.

Take `Cc1cc(Nc2ncc(C)c(N3CC(CC#N)(N4CCC5(CC4)CC5(F)F)C3)n2)sn1` [E22]: the IC50 at TYK2 and at JAK1 was less than 10 nM throughout. As for `Cc1cc(Nc2ncc(C)c(N3CC(CC#N)(N4CC(C)CC5(CC5)C4)C3)n2)sn1` (stereo not shown) [E23], the IC50 against TYK2 and at JAK1 was less than 10 nM each time.

In the case of `COc1cnc(Nc2cc(C)ns2)nc1N1CC(CC#N)(N2CCCCC2)C1` [E24], the IC50 at TYK2 and on JAK1 was less than 50 nM in each case. Turning to `Cc1cc(Nc2ncc(Cl)c(N3CC(CC#N)(N4CCCCC4)C3)n2)sn1` [E25], the IC50 at TYK2 and at JAK1 was less than 10 nM in each case. For the compound `Cc1cc(Nc2ncc(C)c(N3CC(CC#N)(N4CCC5(CC4)COC5)C3)n2)sn1` [E26], the half-inhibitory concentration (IC50) against TYK2 and on JAK1 was less than 10 nM each time. For the compound `Cc1cc(Nc2ncc(C)c(N3CC(CC#N)(N4CCCC5(C4)CC5(F)F)C3)n2)sn1` (stereo not shown) [E27], the half-inhibitory concentration (IC50) on TYK2 and on JAK1 was less than 10 nM each time.

`Cc1cc(Nc2ncc(C)c(N3CC(CC#N)(N4CCC5(CC4)CN(C)C5)C3)n2)sn1` [E28]: the IC50 against TYK2 and on JAK1 was less than 50 nM throughout. On to `Cc1cc(Nc2ncc(C)c(N3CC(CC#N)(N4CC5C(C4)C5(F)F)C3)n2)sn1` (stereo not shown) [E29], for which the IC50 against TYK2 and on JAK1 was less than 10 nM each time. With `Cc1cc(Nc2ncc(C)c(N3CC(CC#N)(N4CC5CCC(C4)N5C)C3)n2)sn1` [E30], the IC50 was less than 10 nM on TYK2 and less than 50 nM on JAK1.

For the compound `Cc1cc(Nc2ncc(C)c(N3CC(CC#N)(N4CC5CC(C4)C5(F)F)C3)n2)sn1` [E31], the IC50 against TYK2 and on JAK1 was less than 10 nM each time. As to `Cc1cc(Nc2ncc(C3CC3)c(N3CC(CC#N)(N4CCCCC4)C3)n2)sn1` [E32], the IC50 against TYK2 is less than 10 nM; at JAK1, less than 50 nM. Taken in the same sequence, the figures for `Cc1cc(Nc2ncc(C)c(N3CC(CC#N)(N4CCCCCC4)C3)n2)sn1` [E33] were less than 10 nM and less than 10 nM. For `Cc1cc(Nc2ncc(C)c(N3CC(CC#N)(N4C[C@@H](C)N(C)[C@@H](C)C4)C3)n2)sn1` [E34], in that order: less than 10 nM and less than 50 nM. Turning to `Cc1cc(Nc2ncc(C)c(N3CC(CC#N)(N4C[C@@H](C)N(C)[C@H](C)C4)C3)n2)sn1` [E35], the IC50 is less than 10 nM at TYK2 and less than 50 nM on JAK1. For `Cc1cc(Nc2ncc(C)c(N3CC(CC#N)(N4CCN(C)C(C)C4)C3)n2)sn1` (stereo not shown) [E36], in that order: less than 10 nM and less than 10 nM. For `Cc1cc(Nc2ncc(C)c(N3CC(CC#N)(N(C)C4CN(C)C4)C3)n2)sn1` [E37], in that order: less than 50 nM and less than 50 nM. Taken in the same sequence, the figures for `Cc1cc(Nc2ncc(C)c(N3CC(CC#N)(N4CCN(C)C5(CC5)C4)C3)n2)sn1` [E38] were less than 10 nM and less than 10 nM. As for `Cc1cc(Nc2ncc(C)c(N3CC(CC#N)(N4CCC5(CC4)CC5)C3)n2)sn1` [E39], the half-maximal inhibitory concentration (IC50) on TYK2 and against JAK1 was less than 10 nM throughout.

For the compound `Cc1cc(Nc2ncc(C)c(N3CC(CC#N)(N4CCC(C5CC5(F)F)CC4)C3)n2)sn1` (stereo not shown) [E40], the IC50 against TYK2 and on JAK1 was less than 10 nM throughout. On to `Cc1cc(Nc2ncc(C)c(N3CC(CC#N)(N4CCCC5(COC5)C4)C3)n2)sn1` [E41], for which the IC50 at TYK2 and on JAK1 was less than 10 nM in each case.

With `Cc1cc(Nc2ncc(C)c(N3CC(CC#N)(N4CC5(CN(C)C5)C4)C3)n2)sn1` [E42], the IC50 on TYK2 and on JAK1 was less than 1000 nM in each case. As to `Cc1cc(Nc2ncc(C)c(N3CC(CC#N)(N4CC(N(C)C)C4)C3)n2)sn1` [E43], the IC50 is less than 100 nM against TYK2 and less than 150 nM on JAK1.

Consider `Cc1cc(Nc2ncc(C)c(N3CC(CC#N)(N4C[C@H](C)N(C)[C@@H](C)C4)C3)n2)sn1` [E44], for which the IC50 against TYK2 was less than 20 nM; on JAK1, less than 50 nM.

Take `Cc1cc(Nc2nccc(N3CC(CC#N)(N4CCCCC4)C3)n2)sn1` [E45]: the IC50 was less than 20 nM against TYK2 and less than 200 nM at JAK1.

As to `Cc1cc(Nc2ncc(C)c(N3CC(CC#N)(N4CCN(C)C5(COC5)C4)C3)n2)sn1` [E46], the IC50 is less than 10 nM at TYK2 and less than 20 nM at JAK1.

As to `Cc1cc(Nc2ncc(C)c(N3CC(CC#N)(N4CCC(CS(C)(=O)=O)CC4)C3)n2)sn1` [E47], the IC50 at TYK2 and against JAK1 was less than 10 nM in each case. With `Cc1cc(Nc2ncc(C)c(N3CC(CC#N)(N4CCN(CC5CC5)CC4)C3)n2)sn1` [E48], the IC50 against TYK2 and against JAK1 was less than 10 nM throughout. On to `Cc1cc(Nc2ncc(C)c(N3CC(CC#N)(N4C5CCCC4C5)C3)n2)sn1` [E49], for which the figures for the IC50 on TYK2 and on JAK1 were less than 20 nM and less than 30 nM, respectively. Taken in the same sequence, the figures for `Cc1cc(Nc2ncc(C)c(N3CC(CC#N)(N4C5CC4CN(C)C5)C3)n2)sn1` [E50] were less than 400 nM and less than 250 nM. Taken in the same sequence, the figures for `Cc1cc(Nc2ncc(C)c(N3CC(CC#N)(N4CCN(CC(C)C)CC4)C3)n2)sn1` [E51] were less than 20 nM and less than 15 nM. Taken in the same sequence, the figures for `Cc1cc(Nc2ncc(C)c(N3CC(CC#N)(N4CCN(C)[C@@H](C)C4)C3)n2)sn1` [E52A] were less than 10 nM and less than 20 nM.

With `Cc1cc(Nc2ncc(C)c(N3CC(CC#N)(N4CCN5C[C@@H](F)C[C@H]5C4)C3)n2)sn1` [E52B], the IC50 at TYK2 and on JAK1 was less than 10 nM in each case. For `Cc1cc(Nc2ncc(C)c(N3CC(CC#N)(N4CCN(CC(C)(C)F)CC4)C3)n2)sn1` [E52D], the results for the IC50 against TYK2 and on JAK1 were less than 20 nM and less than 10 nM, respectively. Taken in the same sequence, the figures for `Cc1cc(Nc2ncc(C)c(N3CC(CC#N)(N4CCC5C(CC4)C5(F)F)C3)n2)sn1` (stereo not shown) [E52E] were less than 10 nM and less than 10 nM. Consider `Cc1cc(Nc2ncc(C)c(N3CC(CC#N)(N4CC5CC(C4)N5C)C3)n2)sn1` [E52F], for which the IC50 at TYK2 was less than 50 nM; on JAK1, less than 100 nM. As to `Cc1cc(Nc2ncc(C)c(N3CC(CC#N)(N4CCCN(C)CC4)C3)n2)sn1` [E52G], the IC50 at TYK2 was less than 50 nM; on JAK1, less than 100 nM.

Turning to `Cc1cc(Nc2ncc(C)c(N3CC(CC#N)(NC4CN(C)C4)C3)n2)sn1` [E52H], the IC50 against TYK2 and on JAK1 was less than 100 nM in each case. Consider `CCN1CCN(C2(CC#N)CN(c3nc(Nc4cc(C)ns4)ncc3C)C2)CC1` [E52], for which the IC50 against TYK2 and at JAK1 was less than 10 nM in each case. Take `Cc1cc(Nc2ncc(C)c(N3CC(CC#N)(N4CCN(C5CC5)CC4)C3)n2)sn1` [E54]: the IC50 at TYK2 and against JAK1 was less than 10 nM throughout. Turning to `Cc1cc(Nc2ncc(C)c(N3CC(CC#N)(N4CCN(C(C)C)CC4)C3)n2)sn1` [E55], the IC50 on TYK2 and on JAK1 was less than 50 nM in each case. With `Cc1cc(Nc2ncc(C)c(N3CC(CC#N)(N4CCN(CCF)CC4)C3)n2)sn1` [E55a], the IC50 against TYK2 and at JAK1 was less than 10 nM throughout.
